This is an account of results in ChEMBL document CHEMBL1201862, “PubChem BioAssay data set” (2004).

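Exposure lasted 48 hours, with cells grown in 96-well plates and compounds tested at five concentrations. GI50 = concentration required for 50% inhibition of growth.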 Calls of active or inactive are those of the source. Cut-off read from the data, not from the text of the source: active = GI50 up to about 1.1 µM and inactive = higher.

Test systems include SK-OV-3; DU-145; NCI-H522; MOLT-4; SK-MEL-28; MCF7; COLO 205; HOP-62; OVCAR-3; NCI/ADR-RES; UACC-62; PC-3; IGROV-1; RXF 393; SF-268; SNB-75; K562; Hs-578T; SN12C; MDA-MB-435.
Common to all, as to assay: inhibition of tumour cell growth, NCI panel, 48 h

Consider `OC1(c2cccs2)c2cccc(Cl)c2C(O)(c2cccs2)c2c(Cl)cccc21` (stereo not given), for which the GI50 is 81.5 µM (inactive) in the assay on SK-OV-3; > 100 µM (inactive) in the assay on DU-145; 96.6 µM (inactive) in the assay on NCI-H522; > 100 µM (inactive) in the assay with MOLT-4; > 100 µM (inactive) in the assay on SK-MEL-28; > 100 µM (inactive) in the assay on MCF7. The GI50 is > 100 µM (inactive) with COLO 205; 57.9 µM (inactive) in the assay with HOP-62; > 100 µM (inactive) in the assay on OVCAR-3; 63.5 µM (inactive) in the assay on NCI/ADR-RES; 34.3 µM (inactive) in the assay with UACC-62; 99.3 µM (inactive) with PC-3. Moreover, the GI50 in the assay on IGROV-1 is 88.5 µM (inactive); with RXF 393, > 100 µM (inactive); in the assay with SF-268, 22.3 µM (inactive); with SNB-75, 47.4 µM (inactive); in the assay on K562, > 100 µM (inactive); in the assay with Hs-578T it was 9.84 µM (inactive). Also, the GI50 with SN12C is 93.8 µM (inactive); with MDA-MB-435, > 100 µM (inactive).
Take `CC1=CC(=O)[C@@H](O)[C@]2(C)[C@H]3[C@@]4(O)OC[C@]35[C@H]([C@@H](C)[C@H]4O)[C@@H](OC(=O)C(C)(C)CO)C(=O)O[C@@H]5C[C@@H]12`: the GI50 is 4.31 µM (inactive) with SK-OV-3; 0.305 µM (active) in the assay on DU-145; < 0.0151 µM (active) in the assay on NCI-H522; 0.0178 µM (active) in the assay with MOLT-4; 0.0478 µM (active) in the assay on SK-MEL-28; < 0.0189 µM (active) with MCF7. In addition, the GI50 was 1.73 µM (inactive) with COLO 205; 0.0989 µM (active) in the assay on HOP-62; < 0.0231 µM (active) in the assay with OVCAR-3; 2.32 µM (inactive) in the assay on NCI/ADR-RES; 0.0838 µM (active) in the assay on UACC-62; 0.0698 µM (active) with PC-3. Further, the GI50 with IGROV-1 was < 0.0165 µM (active); with RXF 393, 0.237 µM (active); with SF-268, < 0.0379 µM (active); in the assay with SNB-75, 0.045 µM (active); in the assay on K562 it was 0.0123 µM (active); with Hs-578T, 0.046 µM (active). In addition, the GI50 is 0.191 µM (active) with SN12C and 0.12 µM (active) with MDA-MB-435.
